Experimental data: EP2017264A1, “Substituted phenyl propargyl compounds, method for their manufacture and their use as herbicides and plant growth regulators” (BAYER CROPSCIENCE AG, priority 2007, dated 2009)

Assay: physchem
Protocol: "LogP" = Verteilungskoeffizient in einem Zweiphasengemisch aus n-Octanol und Wasser.
Die log P-Daten wurden in Übereinstimmung mit der EEC Direktive 79/831, Anlage V.A8 (Annex V.A8) mittels HPLC (High Performance Liquid Chromatography) auf einer Umkehrphase-Säule (reversed-phase column) (C18) mit folgenden Methoden bestimmt: Temperatur: 40°C; Mobile Phase: 0,1 % bzw. 0,06 %ige wässrige Ameisensäure oder 0,1 % wässriger Phosphorsäure und Acetonitril; linearer Gradient von 10% Acetonitril bis 90% bzw. 95 % Acetonitril. Die Kalibrierung wurde ausgeführt mit Hilfe unverzweigter Alkan-2-one (bestehend aus 3 bis 13 bzw.16 Kohlenstoff-Atomen) mit bekannten IogP-Werten (Bestimmung der IogP-Werte über die Retentionszeiten mittels linearer Interpolation zwischen zwei nachfolgenden Alkanonen).

chromatographic logP | SMILES
5.13 | CCC(=NOCC#Cc1cccc(C(F)(F)F)c1)c1ccc(F)cc1 [Beispiel 1.412]
3.79 | CSc1cccc(C#CC(C)ON=Cc2cccc(C)n2)c1 (stereo not drawn) [Beispiel 3.085]
4.29 | COc1cc(F)ccc1C=NOCC#Cc1ccccc1SC [Beispiel 1.442]
2.73 | COc1ccccc1C=NOCC#Cc1ccccc1[S+](C)[O-] (stereo not drawn) [Beispiel 1.445]
2.78 | COc1cc(F)ccc1C=NOCC#Cc1ccc(F)c(F)c1[S+](C)[O-] (stereo not drawn) [Beispiel 1.448]
4.58 | COc1cc(F)ccc1C=NOCC#Cc1ccc(F)c(F)c1SC [Beispiel 1.447]
3.14 | CCC(=NOCC#Cc1cccc([S+](C)[O-])c1)c1ccc(F)cc1 (stereo not drawn) [Beispiel 1.423]
3.07 | CC[S+]([O-])c1cc(C#CCON=Cc2ccccc2OC)ccc1OC (stereo not drawn) [Beispiel 1.401]
4.77 | COc1cc(F)ccc1C=NOCC#Cc1cccc(OC(F)(F)F)c1 [Beispiel 1.429]
4.76 | CCOc1nc(C=NOCC#Cc2cccc(SC)c2)ccc1F [Beispiel 3.125]
3.05 | CC[S+]([O-])c1cc(C#CCON=Cc2ccccc2OC)ccc1C (stereo not drawn) [Beispiel 1.426]
4.84 | CCC(=NOCC#Cc1cccc(SC)c1)c1ccccc1 [Beispiel 1.405]
4.92 | CCC(=NOCC#Cc1cccc(OC)c1)c1ccc(C)cc1 [Beispiel 1.407]
3.09 | COc1ncc(Cl)nc1C=NOCC#Cc1cccc(CC#N)c1 [Beispiel 4.094]
2.19 | COc1ccc(C=NOCC#Cc2ccccc2[S+](C)[O-])cn1 (stereo not drawn) [Beispiel 5.145]
4.03 | CCSc1cc(C#CCON=Cc2ccc(OC)nc2)ccc1OC [Beispiel 5.131]
3.77 | COc1cccc(OC)c1C=NOCC#Cc1cccc(SC)c1 [Beispiel 1.393]
1.75 | CC(=NOCC#Cc1cccc([S+](C)[O-])c1)c1cccc(C)n1 (stereo not drawn) [Beispiel 3.092]
4.23 | COc1ccccc1C=NOCC#Cc1ccccc1SC [Beispiel 1.386]
5.33 | CCSc1cc(C#CCON=Cc2ccccc2OC)ccc1C [Beispiel 1.424]
4.68 | CCOc1ncc(C=NOCC#Cc2cccc(SC)c2)cc1F [Beispiel 5.199]
4.54 | COc1cc(F)ccc1C=NOCC#Cc1ccc(F)c(SC)c1F [Beispiel 1.435]
3.32 | COc1ccccc1C=NOCC#Cc1cc(C)c(F)c([S+](C)[O-])c1 (stereo not drawn) [Beispiel 1.444]

chromatographic logP | SMILES
3.43 | COc1cc(F)ccc1C=NOCC#Cc1cc(C)c(F)c([S+](C)[O-])c1 (stereo not drawn) [Beispiel 1.443]
2.17 | COc1ccc(C=NOCC#Cc2ccc(F)c(F)c2[S+](C)[O-])cn1 (stereo not drawn) [Beispiel 5.147]
4.18 | CSc1cccc(C#CCON=Cc2nccnc2SC)c1 [Beispiel 4.078]
5.24 | COc1ccccc1C=NOCC#Cc1cccc(SC(C)C)c1 [Beispiel 1.430]
2.96 | CC(=NOCC#Cc1cccc(CC#N)c1)c1cccc(C)n1 [Beispiel 3.094]
5.36 | CCC(=NOCC#Cc1cccc(SC)c1)c1ccc(C)cc1 [Beispiel 1.409]
3.34 | COc1nccnc1C=NOCC#Cc1cccc(SC)c1 [Beispiel 4.084]
5.26 | COc1cc(F)ccc1C=NOCC#Cc1cccc(SC(C)C)c1 [Beispiel 1.431]
3.83 | COc1ccc(C=NOCC#Cc2ccc(OC)c(SC)c2)cn1 [Beispiel 5.138]
3.22 | COc1ccc(C=NOCC#Cc2cccc(CC#N)c2)c(OC)c1 [Beispiel 1.387]
4.24 | COc1ccccc1C=NOCC#Cc1ccc(OC)c(SC)c1 [Beispiel 1.434]
2.17 | COc1ccc(C=NOCC#Cc2ccc(F)c([S+](C)[O-])c2F)cn1 (stereo not drawn) [Beispiel 5.140]
4.03 | COc1nc(Cl)cnc1C=NOCC#Cc1cccc(SC)c1 [Beispiel 4.100]
4.45 | CCSc1cc(C#CCON=Cc2ccccc2OC)ccc1OC [Beispiel 1.398]
2.93 | CCC(=NOCC#Cc1cccc(S(C)(=O)=O)c1)c1cccc(C)n1 [Beispiel 3.097]
5.01 | COc1ccccc1C=NOCC#Cc1cc(C)c(F)c(SC)c1 [Beispiel 1.440]
4.84 | CCC(=NOCC#Cc1cccc(CC#N)c1)c1cccc(Cl)c1Cl [Beispiel 1.419]
2.86 | COc1cccc(OC)c1C=NOCC#Cc1cccc(CC#N)c1 [Beispiel 1.397]
2.66 | COc1ccccc1C=NOCC#Cc1ccc(F)c([S+](C)[O-])c1F (stereo not drawn) [Beispiel 1.437]
2.42 | CC[S+]([O-])c1cc(C#CCON=Cc2ccc(OC)nc2)ccc1OC (stereo not drawn) [Beispiel 5.132]
4.48 | COc1ccccc1C=NOCC#Cc1ccc(F)c(SC)c1F [Beispiel 1.436]
4.1 | COc1ccc(C=NOCC#Cc2ccc(F)c(SC)c2F)cn1 [Beispiel 5.139]
4.57 | COc1ccc(C=NOCC#Cc2cc(SC)c(F)c(SC)c2)cn1 [Beispiel 5.148]

chromatographic logP | SMILES
2.18 | CS(=O)(=O)c1ccc(C=NOCC#Cc2cccc(CC#N)c2)cn1 [Beispiel 5.200]
4.12 | CCC(=NOCC#Cc1cccc([S+](C)[O-])c1)c1cccc(Cl)c1Cl (stereo not drawn) [Beispiel 1.422]
5.05 | COc1cc(F)ccc1C=NOCC#Cc1cc(C)c(F)c(SC)c1 [Beispiel 1.441]
5.03 | CCC(=NOCC#Cc1cccc(C(F)(F)F)c1)c1ccccc1F [Beispiel 1.416]
3.79 | COc1ccc(C=NOCC#Cc2cccc(CC#N)c2)c(OC)n1 [Beispiel 5.184]
4.92 | CSc1cccc(C#CCON=Cc2cc(C(F)(F)F)c(Cl)cn2)c1 [Beispiel 3.120]
2.21 | COc1nc(Cl)cnc1C=NOCC#Cc1cccc([S+](C)[O-])c1 (stereo not drawn) [Beispiel 4.106]
4.22 | CSc1cccc(C#CCON=Cc2ccc(SC)nc2)c1 [Beispiel 5.186]
4.45 | CCC(=NOCC#Cc1cccc(OC)c1)c1ccccc1 [Beispiel 1.403]
4.9 | CCSc1cccc(C#CCON=Cc2ccccc2OC)c1 [Beispiel 1.056]
3.72 | CCC(=NOCC#Cc1cccc(CC#N)c1)c1ccccc1F [Beispiel 1.418]
4.51 | COc1ccccc1C=NOCC#Cc1ccc(F)c(SC)c1 [Beispiel 1.053]
4.26 | COc1ccc(C=NOCC#Cc2cccc(OC(F)(F)F)c2)cn1 [Beispiel 5.135]
4.84 | CCC(=NOCC#Cc1cccc(SC)c1)c1ccccc1F [Beispiel 1.417]
3.5 | CCC(=NOCC#Cc1cccc(CC#N)c1)c1cccc(C)n1 [Beispiel 3.098]
2.42 | COc1ncccc1C=NOCC#Cc1ccc(C)c([S+](C)[O-])c1 (stereo not drawn) [Beispiel 5.168]
2.4 | CC(=NOCC#Cc1cccc(S(C)(=O)=O)c1)c1cccc(C)n1 [Beispiel 3.093]
2.96 | C[S+]([O-])c1cccc(C#CCON=Cc2cc(C(F)(F)F)c(Cl)cn2)c1 (stereo not drawn) [Beispiel 3.121]
2.21 | CCC(=NOCC#Cc1cccc([S+](C)[O-])c1)c1cccc(C)n1 (stereo not drawn) [Beispiel 3.096]
4.72 | COc1ccccc1C=NOCC#Cc1cccc(OC(F)(F)F)c1 [Beispiel 1.428]
5.05 | COc1ccccc1C=NOCC#Cc1cc(SC)c(F)c(SC)c1 [Beispiel 1.450]
4.93 | COc1ccc(C=NOCC#Cc2cccc(SC)c2)c(OC)n1 [Beispiel 5.183]
3.4 | C[S+]([O-])c1cccc(C#CCON=Cc2ccc(OCC(F)(F)F)nc2OCC(F)(F)F)c1 (stereo not drawn) [Beispiel 5.193]

chromatographic logP | SMILES
1.37 | Cc1ccc(C#CCON=Cc2cccnc2)cc1[S+](C)[O-] (stereo not drawn) [Beispiel 5.170]
4.77 | CCC(=NOCC#Cc1cccc(SC)c1)c1cccc(C)n1 [Beispiel 3.095]
4.27 | N#CCc1cccc(C#CCON=Cc2ccc(C3CCCC3)nc2)c1 [Beispiel 5.195]
5.08 | CSc1cccc(C#CCON=Cc2ccc(OCC(F)(F)F)nc2OCC(F)(F)F)c1 [Beispiel 5.191]
4.34 | CCSc1cccc(C#CCON=Cc2ccc(OC)nc2)c1 [Beispiel 5.127]
5.17 | COc1cc(F)ccc1C=NOCC#Cc1cc(SC)c(F)c(SC)c1 [Beispiel 1.449]
3.15 | CC[S+]([O-])c1cc(C#CCON=Cc2ccc(F)cc2OC)ccc1C (stereo not drawn) [Beispiel 1.427]
4.4 | COc1ccc(C=NOCC#Cc2cccc(SC)c2)c(OC)c1 [Beispiel 1.388]
2.78 | CCOc1nc(C=NOCC#Cc2cccc([S+](C)[O-])c2)ccc1F (stereo not drawn) [Beispiel 3.126]
4.53 | CCSc1cc(C#CCON=Cc2ccc(F)cc2OC)ccc1OC [Beispiel 1.399]
2.51 | CC[S+]([O-])c1cc(C#CCON=Cc2ccc(OC)nc2)ccc1C (stereo not drawn) [Beispiel 5.134]
3.83 | COc1ccc(C=NOCC#Cc2ccc(F)c(F)c2)cn1 [Beispiel 5.141]
4.8 | COc1ccc(C=NOCC#Cc2cccc(SC(C)C)c2)cn1 [Beispiel 5.136]
3.19 | CC[S+]([O-])c1cc(C#CCON=Cc2ccc(F)cc2OC)ccc1OC (stereo not drawn) [Beispiel 1.402]
4.65 | COc1ncc(C=NOCC#Cc2cc(SC)c(F)c(SC)c2)cc1F [Beispiel 5.198]
4.32 | COc1cc(F)ccc1C=NOCC#Cc1ccc(OC)c(SC)c1 [Beispiel 1.433]
1.57 | COc1nccnc1C=NOCC#Cc1cccc([S+](C)[O-])c1 (stereo not drawn) [Beispiel 4.090]
3.43 | COc1ccccc1-c1ccn(CC#Cc2cccc(SC)c2)n1 [Beispiel 6.050]
3.49 | COc1ccc(C=NOCC#Cc2ccc(C#N)c(SC)c2)cn1 [Beispiel 5.126]
4.03 | COc1ncc(Cl)nc1C=NOCC#Cc1cccc(SC)c1 [Beispiel 4.092]
3.88 | CCC(=NOCC#Cc1cccc(CC#N)c1)c1ccc(F)cc1 [Beispiel 1.414]
